In patent US9995734B2, “Human T cell line assay for evaluating the immunologic identity of glatiramer acetate preparations” (Mylan Inc., priority 2013, dated 2018):
Where “and” joins values, the source holds several entries; their conditions need not be identical. Equal values may be shown once.

System: Donor 3 GMA T-Cell Lines
Test: ATP proliferation assay (CellTiter Glo), Donor 3 GMA T-cell lines, incl. reactivity to non-canonical GA peptides
Format: cell-based, human
Conditions: for proliferation response to non-canonical GA peptides: 0, 1, 3, 10, 30 μg/mL; for Non-Canonical Peptide Non-Reactivity: proliferation <2 times no antigen control; for Non-Canonical Peptide Reactivity: at least one proliferation value >=2 times no antigen control

poly (Glu-Lys-Tyr; 6:3:1) [GLT 631]
proliferation response to non-canonical GA peptides (165-B5G and 165-E7G, Day 81): responded well
Non-Canonical Peptide Non-Reactivity (165-B5G): GLT 631
Non-Canonical Peptide Non-Reactivity (165-C5G): GLT 631
Non-Canonical Peptide Reactivity (165-E7G): GLT 631
Non-Canonical Peptide Non-Reactivity (165-E9G): GLT 631
Non-Canonical Peptide Non-Reactivity (165-F5G): GLT 631
Non-Canonical Peptide Non-Reactivity (165-F10G): GLT 631
proliferation response to non-canonical GA peptides (165-H11G, Day 50): responded
Non-Canonical Peptide Reactivity (165-H11G): GLT 631
Reactive T-Cell Line (Donor 3 GMA lines, at least a 50% increase in proliferation relative to a control after stimulation with the non-canonical GA peptide): 165-H11G (Donor 3)
Nonreactive T-Cell Line (Donor 3 GMA lines, stimulation with the non-canonical GA peptide): 165-B5G (Donor 3) and 165-C5G (Donor 3) and 165-C8G (Donor 3) and 165-E7G (Donor 3) and 165-E9G (Donor 3) and 165-F5G (Donor 3) and 165-F10G (Donor 3)
Proliferation (luminescent ATP assay), Mean (T-cell line 165-05G, 1 μg/mL antigen, Day 50 of culturing, No Antigen Value 2149): 1871 RLU
Proliferation (luminescent ATP assay), Mean (T-cell line 165-05G, 3 μg/mL antigen, Day 50 of culturing, No Antigen Value 2149): 2268 RLU
Proliferation (luminescent ATP assay), Mean (T-cell line 165-05G, 10 μg/mL antigen, Day 50 of culturing, No Antigen Value 2149): 2256 RLU
Proliferation (luminescent ATP assay), Mean (T-cell line 165-05G, 30 μg/mL antigen, Day 50 of culturing, No Antigen Value 2149): 2137 RLU
Proliferation (luminescent ATP assay), Mean (T-cell line 165-B5G, 1 μg/mL antigen, Day 81 of culturing, No Antigen Value 2432): 4288 RLU
Proliferation (luminescent ATP assay), Mean (T-cell line 165-B5G, 1.25 μg/mL antigen, Day 55 of culturing, No Antigen Value 846): 1054 RLU
Proliferation (luminescent ATP assay), Mean (T-cell line 165-B5G, 2.5 μg/mL antigen, Day 55 of culturing, No Antigen Value 846): 1159 RLU
Proliferation (luminescent ATP assay), Mean (T-cell line 165-B5G, 3 μg/mL antigen, Day 81 of culturing, No Antigen Value 2432): 5153 RLU
Proliferation (luminescent ATP assay), Mean (T-cell line 165-B5G, 5 μg/mL antigen, Day 55 of culturing, No Antigen Value 846): 1687 RLU
Proliferation (luminescent ATP assay), Mean (T-cell line 165-B5G, 10 μg/mL antigen, Day 55 of culturing, No Antigen Value 846): 3589 RLU
Proliferation (luminescent ATP assay), Mean (T-cell line 165-B5G, 10 μg/mL antigen, Day 81 of culturing, No Antigen Value 2432): 11847 RLU
Proliferation (luminescent ATP assay), Mean (T-cell line 165-B5G, 30 μg/mL antigen, Day 81 of culturing, No Antigen Value 2432): 11416 RLU
Proliferation (luminescent ATP assay), Mean (T-cell line 165-C5G, 1.25 μg/mL antigen, autologous B-LCL): 485 RLU
Proliferation (luminescent ATP assay), Mean (T-cell line 165-C5G, 2.5 μg/mL antigen, autologous B-LCL): 552 RLU
Proliferation (luminescent ATP assay), Mean (T-cell line 165-C5G, 5 μg/mL antigen, autologous B-LCL): 585 RLU
Proliferation (luminescent ATP assay), Mean (T-cell line 165-C5G, 10 μg/mL antigen, autologous B-LCL): 579 RLU
Proliferation (luminescent ATP assay), Mean (T-cell line 165-E7G, 1 μg/mL antigen, Day 81 of culturing, No Antigen Value 2145): 3992 RLU
Proliferation (luminescent ATP assay), Mean (T-cell line 165-E7G, 1.25 μg/mL antigen, autologous B-LCL, Day 55): 2983 RLU
Proliferation (luminescent ATP assay), Mean (T-cell line 165-E7G, 2.5 μg/mL antigen, autologous B-LCL, Day 55): 3783 RLU
Proliferation (luminescent ATP assay), Mean (T-cell line 165-E7G, 3 μg/mL antigen, Day 81 of culturing, No Antigen Value 2145): 5133 RLU
Proliferation (luminescent ATP assay), Mean (T-cell line 165-E7G, 5 μg/mL antigen, autologous B-LCL, Day 55): 5821 RLU
Proliferation (luminescent ATP assay), Mean (T-cell line 165-E7G, 10 μg/mL antigen, Day 81 of culturing, No Antigen Value 2145): 12006 RLU
Proliferation (luminescent ATP assay), Mean (T-cell line 165-E7G, 10 μg/mL antigen, autologous B-LCL, Day 55): 5710 RLU
Proliferation (luminescent ATP assay), Mean (T-cell line 165-E7G, 30 μg/mL antigen, Day 81 of culturing, No Antigen Value 2145): 12836 RLU
Proliferation (luminescent ATP assay), Mean (T-cell line 165-E9G, 1 μg/mL antigen, Day 50 of culturing, No Antigen Value 1742): 1630 RLU
Proliferation (luminescent ATP assay), Mean (T-cell line 165-E9G, 1.25 μg/mL antigen, autologous B-LCL): 142 RLU
Proliferation (luminescent ATP assay), Mean (T-cell line 165-E9G, 2.5 μg/mL antigen, autologous B-LCL): 195 RLU
Proliferation (luminescent ATP assay), Mean (T-cell line 165-E9G, 3 μg/mL antigen, Day 50 of culturing, No Antigen Value 1742): 1600 RLU
Proliferation (luminescent ATP assay), Mean (T-cell line 165-E9G, 5 μg/mL antigen, autologous B-LCL): 233 RLU
Proliferation (luminescent ATP assay), Mean (T-cell line 165-E9G, 10 μg/mL antigen, autologous B-LCL): 312 RLU
Proliferation (luminescent ATP assay), Mean (T-cell line 165-E9G, 30 μg/mL antigen, Day 50 of culturing, No Antigen Value 1742): 2152 RLU
